Experiments:
[1] = system: chicken liver MPD (mevalonate pyrophosphate decarboxylase); settings: pseudo-first order kinetics; ATP and MevPP protect against inactivation; cited from earlier work
[2] = molecular target: T1, partially purified human liver MPD (mevalonate pyrophosphate decarboxylase) (Homo sapiens, UniProt P53602); experiment: Inhibition of partially purified human liver MPD by phenylglyoxal; type: biochemical; settings: partially purified enzyme; no concentration stated
T1 construct: from tissue; host or cells: human liver
T1 sequence (P53602 1-400): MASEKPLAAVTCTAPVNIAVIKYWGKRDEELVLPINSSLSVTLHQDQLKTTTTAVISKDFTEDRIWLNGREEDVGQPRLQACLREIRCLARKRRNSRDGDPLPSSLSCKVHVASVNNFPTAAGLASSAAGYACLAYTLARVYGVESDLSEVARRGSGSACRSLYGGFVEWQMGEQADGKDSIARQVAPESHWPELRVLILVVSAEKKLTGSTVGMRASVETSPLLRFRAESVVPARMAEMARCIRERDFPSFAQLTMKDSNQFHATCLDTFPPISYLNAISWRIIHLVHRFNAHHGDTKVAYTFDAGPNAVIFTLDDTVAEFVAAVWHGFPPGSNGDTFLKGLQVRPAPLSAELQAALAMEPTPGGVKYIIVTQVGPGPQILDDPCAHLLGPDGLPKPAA
Source text: This agrees with the work of Jabalquinto et al., (1983) Arch. Biochem. Biophys. […] They concluded that a single arginine is near the binding site of ATP and MevPP in the chicken liver enzyme. To this end, the Arg27Lys and Arg153Lys mutants were made using the AAA lysine codon triplet and a single-stranded DNA template isolated from pO-3. These mutated cDNAs were subcloned into pET14-b and expressed like p11-4 as described above. […] The Arg27Lys mutant appears to produce lower activity compared to the parent plasmid ([…]) from which it was derived, but this may not be a significant difference. […] Antisera against MPD for the Westerns was made with material expressed in E. coli from plasmid p11-4.
Cell pellets from the various expression systems were sonicated in homogenization buffer (20 mM Tris/HCl pH 7.5, 15 mM EDTA, 15 mM EGTA, 100 μM Leupeptin, 0.75 mg/l Aprotinin, 0.1 mM PMSF) and assayed directly for enzyme activity and protein concentration. Activity was measured as the conversion of labelled mevalonate pyrophosphate into isopentenyl pyrophosphate. […] 2 ml of Econofluor-2 (New England Nuclear) was added to the assay mixture the sample was capped, shaken, and counted on a scintillation counter. Because of the organic nature of the scintillation fluid, dephosphorylated product (isopentenyl) is solubilized and counted whereas dephosphorylated substrate (mevalonic acid) is not. […]

O=CC(=O)c1ccccc1 [phenylgloxal]
inactivation of MPD [1]: inactivated
inhibition of MPD [2]: inhibited

Source: patent US5837839A, “DNA coding sequences for mevalonate Pyrophosphate decarboxylase” (Novartis Finance Corporation, priority 1996, dated 1998)
